Source: patent US20110206786A1, “Acai and Iridoid Based Formulations” (priority 2010, published 2011)

Key:
[1] = system: E. coli PQ37; assay type: cell-based; conditions: iridoid at 250 ug plus 1.25 ug mL^−1 4NQO; blank = 1
Method: The SOS-chromotest in E. coli PQ37 was used to determine the potential for iridoids in noni fruit from French Polynesia to prevent primary DNA damage. E coli PQ37 was incubated at 37° C. in the presence of deacetylasperulosidic acid and asperulosidic acid at a concentration of 250 ug in a 96-well plate. Replicate samples were evaluated. […] Following incubation with the samples, 5-bromo-4-chloro-3-indolyl-β-D-galactopyranoside was added to the wells to detect β-galactosidase enzyme activity, which is induced during SOS repair of damaged DNA. The samples were again incubated for 90 minutes and the absorbances of the samples, blank and positive control were measured at 620 nm with a microplate reader. The β-galactosidase enzyme activity induction factor of each material was calculated by dividing the absorbance of the sample at 620 nm by that of the blank, while also correcting for cell viability.

[2] = system: E. coli PQ37; test: Anti-genotoxicity test (SOS-chromotest with 4NQO); assay type: cell-based; conditions: 250 μg mL^−1 iridoid plus 1.25 μg 4NQO, compared with vehicle blank
Method: The primary DNA damage test was performed again, similar to the method described above. […] Induction factors were calculated in the same manner as described above.

[3] = Thermal stability of DAA under pasteurization conditions (HPLC); assay type: physicochemical; conditions: 90° C. at pH 3.3 for one minute
Method: Tahitian noni fruit puree as used in this example is the mashed whole fruit, excluding seeds and pericarp. The fruits were originally collected from the Tahitian Islands. One gram of the puree was diluted with 5 mL of H2O-MeOH (1:1) and mixed thoroughly. The solution was then filtered through a nylon microfilter (0.45-μm pore size); the solution was collected into a 5 mL volumetric flask for HPLC analysis. Four batches of noni puree were analyzed in the experiments. Voucher specimens of the noni fruit puree are deposited in our lab. To test iridoid stability, a DAA solution of 0.5 mg/mL was prepared with MeOH. This solution was heated in a water-bath at 90° C. for 1 min, cooled to room temperature, and analyzed by HPLC.
Noni fruit juice is usually subjected to heat pasteurization during commercial processing. Pasteurization is usually employed in noni industry, i.e., heating up to 87.7° C. for several seconds. In this study, the stability of DAA was conducted. DAA was exposed to 90° C. at pH 3.3 for one minute to determine its thermal stability at acidic conditions.

SMILES: CC(=O)OCC1=C[C@H](O)[C@@H]2C(C(=O)O)=CO[C@@H](O[C@@H]3O[C@H](CO)[C@@H](O)[C@H](O)[C@H]3O)[C@H]12 [AA, asperulosidic acid]
- β-galactosidase enzyme activity induction factor (mean±standard deviation) [1]: 1.04±0.01
- induction factors of 4NQO plus DAA or AA [2]: no statistical difference from that of the vehicle blank

SMILES: O=C(O)C1=CO[C@@H](O[C@@H]2O[C@H](CO)[C@@H](O)[C@H](O)[C@H]2O)[C@@H]2C(CO)=C[C@H](O)[C@H]12 [DAA, deacetylasperulosidic acid]
- β-galactosidase enzyme activity induction factor (mean±standard deviation) [1]: 0.98±0.02
- induction factors of 4NQO plus DAA or AA [2]: no statistical difference from that of the vehicle blank
- thermal stability (DAA contents before and after heating) [3]: no difference in the DAA contents before and after heating
